From patent US20250290151A1, “Differentially-Methylated Regions of the Genome Useful as Markers of Embryo-Adult Transitions” (priority 2019, published 2025)
“And” between values parts separate entries of the source, which are not always exact repeats. Equal entries are not always repeated.

What was measured:
adult bone marrow MSCs = assay: H2O2-mediated apoptosis (survival) before and after knock-down of COX7A1; assay type: cell-based, human; settings: 300 uM H2O2
Experimental: (§1) Similarly, normal pre-EFT vascular progenitors were more sensitive to apoptosis at 37 uM of camptothecin (39% apoptosis) compared to adult aortic endothelial counterparts (25.5% apoptosis). In addition, H2O2-mediated apoptosis was measured in post-EFT cells (adult bone marrow MSCs) before and after knock-down of COX7A1 expression.

[1] = tested on: adult aortic endothelial counterparts; assay: TUNEL apoptosis assay after camptothecin, adult aortic endothelial cells; assay type: cell-based, human; settings: 37 uM camptothecin, 24 h
Experimental: (§2) The pre-EFT (DC) fibrosarcoma cell line HT1080 was infected with lentivirus expressing COX7A1 together with a control line expressing green fluorescent protein (GFP). The resulting cells were treated with 0, 0.37, and 37 uM camptothecin to generate a DNA damage response and apoptosis. TUNEL (TdT-mediated dUTP-X nick end labeling) adds label to termini of ssDNA and dsDNA. Readout used was fluorescent nuclei read by microscopy. In brief, cell lines were cultured in 96-well plates at 5000 cells/well and grown over night. The following day, the growth medium was removed and replaced with growth medium containing compounds and controls. After 24 h, the cells are fixed for 20 minutes using 4% PFA. Plates are stored at 4 deg C. in PBS until processing. Fixed cells were permeabilized with 0.1% Triton X-100 and 0.1% sodium citrate for 2 minutes on ice. […] 9 images per well were collected and analyzed for total cell number and number of cells stained for apoptosis.
as §1

[2] = tested on: normal pre-EFT vascular progenitors; assay: TUNEL apoptosis assay after camptothecin, pre-EFT vascular progenitors; assay type: cell-based, human; settings: 37 uM camptothecin, 24 h
Experimental: as §2, §1

[3] = tested on: fibrosarcoma cell line HT1080; assay: TUNEL apoptosis assay after camptothecin, HT1080 expressing COX7A1 vs GFP control; assay type: cell-based, human; settings: 0, 0.37 and 37 uM camptothecin, 24 h, p<0.05
Experimental: as §2, §1

[4] = tested on: xenograft breast tumors derived from the breast cancer cell line MCF-7; assay: COX7A1 expression in MCF-7 xenograft breast tumors after doxorubicin; assay type: in vivo; settings: MCF-7 xenograft breast tumors treated with doxorubicin; controls 3.84 and 4.52
Source text: The present invention instead teaches the contrary, that these surviving CSCs are instead cancer cells that display a post-EFT pattern (i.e. a more mature pattern) of gene expression. Using the expression of the gene COX7A1 as a transcriptional marker of pre- or post-EFT cells wherein COX7A1 is expressed in post-EFT cells, we observe that pancreatic cancer with ablated KRAS leading to pancreatic CSCs, results in increased COX7A1 and CAT (also a post-EFT marker), not decreased as predicted by current models (FIG. 10). In addition, the treatment of xenograft breast tumors derived from the breast cancer cell line MCF-7 with the anti-tumor anthracycline antibiotic doxorubicin results in COX7A1 RFU levels of 5.04 and 5.57 compared to controls of 3.84 and 4.52 in controls, again indicative of the more mature state of surviving cells following chemotherapy. In addition, in the example of rectal cancer, levels of COX7A1 expression were 92.7 RFUs following radiotherapy compared to 75 RFUs in untreated rectal cancer (p<0.05). […]

Compound: OO [H2O2]
- cells surviving (adult bone marrow MSCs; MSCs after knockdown of COX7A1 (iTR modality), p<0.05): 59.8%
- cells surviving (adult bone marrow MSCs; normal adult bone marrow MSCs): 82.4%

Compound: CC[C@@]1(O)C(=O)OCc2c1cc1n(c2=O)Cc2cc3ccccc3nc2-1 [camptothecin]
- apoptosis [1]: 25.5%
- apoptosis [2]: 39%
- sensitivity to apoptosis (TUNEL) [3]: significantly decreased sensitivity to apoptosis

Compound: COc1cccc2c1C(=O)c1c(O)c3c(c(O)c1C2=O)C[C@@](O)(C(=O)CO)C[C@@H]3O[C@H]1C[C@H](N)[C@H](O)[C@H](C)O1 [doxorubicin]
- COX7A1 RFU levels [4]: 5.04 RFU and 5.57 RFU
